Reference: EP0639971B1, “THERAPEUTIC COMBINATIONS” (priority 1992, dated 1993)

What was measured:
Format in all cases: cell-based
HIV = assay: In vitro passage experiments: acquisition of resistance to oxathiolane nucleosides
[1] = test system: HIV-1 population containing four mutations in the HIV-RT which confer zidovudine resistance; assay: Passage of zidovudine-resistant HIV-1 in cell culture with increasing concentrations of Chloro-TIBO; antiviral sensitivity (IC50)
[2] = test system: zidovudine-resistant HIV strain (HIVRTMC); assay: Antiviral sensitivity (IC50) of zidovudine-resistant HIV strain; settings: Human immunodeficiency virus 1; HIVRTMC before introduction of mutation
[3] = test system: zidovudine-resistant HIV strain (HIVRTMC) with M184 to V mutation; assay: Antiviral sensitivity (IC50) of zidovudine-resistant HIV strain with M184 to V mutation introduced; settings: Human immunodeficiency virus 1
[4] = test system: zidovudine-resistant virus with Y181 to C, together with M184 to V; assay: Antiviral sensitivity (IC50) of zidovudine-resistant HIV strain with Y181 to C and M184 to V mutations introduced

| SMILES | acquisition of resistance by HIV (HIV) | IC50 ([1]; Human immunodeficiency virus 1, after five passages with Chloro-TIBO) [nM] | IC50 ([1]; Human immunodeficiency virus 1, before passage with Chloro-TIBO) [nM] | increase of sensitivity of the virus population to zidovudine ([1]; after five passages with increasing concentrations of Chloro-TIBO) | IC50 [2] [nM] | IC50 [3] [nM] | sensitivity / resistance of the resulting mutant virus strain [4] | IC50 ([4]; Human immunodeficiency virus 1) [nM] |
| --- | --- | --- | --- | --- | --- | --- | --- | --- |
| Nc1ccn([C@H]2CS[C@@H](CO)O2)c(=O)n1 [3TC, (-)-2',3'-dideoxy-3'-thiacytidine] | rapid resistance | – | – | – | – | – | – | – |
| Cc1cn([C@H]2C[C@H](N=[N+]=[N-])[C@@H](CO)O2)c(=O)[nH]c1=O [zidovudine, 3'-azido-3'-deoxythymidine] | – | < 100 | ~2000 | about twenty fold | 1260 | 170 | completely sensitive | 40 |
| Nc1nc(=O)n([C@@H]2CS[C@H](CO)O2)cc1F [FTC, (-)-2'3'-dideoxy-5-fluoro-3'-thiacytidine] | rapid resistance | – | – | – | 640 | > 500000 | – | – |
